The values that follow come from US12240862B2, “Inhibitors of peptidylarginine deiminases” (Gilead Sciences, Inc., priority 2020, dated 2025).

SMILES strings stand for the structures. pIC50: −log10 of the molar value.

T1 sequence (Q9UM07 2-663): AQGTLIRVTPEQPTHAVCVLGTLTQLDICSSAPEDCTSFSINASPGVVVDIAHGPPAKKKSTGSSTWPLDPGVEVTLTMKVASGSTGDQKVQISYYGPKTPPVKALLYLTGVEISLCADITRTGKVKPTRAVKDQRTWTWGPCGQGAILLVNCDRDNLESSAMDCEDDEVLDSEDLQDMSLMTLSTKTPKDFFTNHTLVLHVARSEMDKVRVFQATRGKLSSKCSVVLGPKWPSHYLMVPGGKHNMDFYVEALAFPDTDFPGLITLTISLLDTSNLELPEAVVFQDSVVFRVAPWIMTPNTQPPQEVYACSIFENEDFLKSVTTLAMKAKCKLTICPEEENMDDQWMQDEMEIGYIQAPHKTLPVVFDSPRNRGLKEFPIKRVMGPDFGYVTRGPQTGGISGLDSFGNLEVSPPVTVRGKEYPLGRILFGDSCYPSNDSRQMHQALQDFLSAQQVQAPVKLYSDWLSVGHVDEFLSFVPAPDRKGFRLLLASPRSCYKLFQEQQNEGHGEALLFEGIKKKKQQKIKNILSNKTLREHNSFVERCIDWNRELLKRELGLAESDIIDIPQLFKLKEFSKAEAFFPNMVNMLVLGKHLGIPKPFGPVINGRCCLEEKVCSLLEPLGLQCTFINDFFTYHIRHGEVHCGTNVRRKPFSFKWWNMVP

This assay has as its target T1, human PAD4 (Homo sapiens, UniProt Q9UM07).
T1 construct: human PAD4 (NM_012387), A2P663, was PCR amplified; His-SUMO (N, cleaved yes); made in house; host or cells: E. coli BL21(DE3)
Nature of the assay: In vitro PAD4 BAEE biochemical assay. As to conditions: human PAD4, BAEE substrate; 5 nM PAD4, 2 mM calcium chloride, 3 mM BAEE; geometric mean of multiple experiments. In a few lines:
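Ammonia release from BAEE deimination monitored by o-phthalaldehyde amine coupling (1 h, 25 °C) after EDTA stop. Final conditions: 5 nM tag-free recombinant human PAD4 (E. coli), 2 mM CaCl2, 3 mM BAEE, pH 7.6 MOPS with DTT; 30 min compound preincubation, then 2 h reaction at 25 °C.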
On to `COc1cc(C(=O)N2[C@H]3CC[C@@H]2[C@H](N)C3)cc2nc(-c3cc4ccc(C(C)CC(=O)NC(C)(C)C)nc4n3CC3CC3)c(C)n12` (stereo partly drawn) [Example 521, 3-[2-[7-[(1~{R},2~{R}, 4~{S})-2-amino-7-azabicyclo[2.2.1]heptane-7-carbonyl]-5-methoxy-3-methylimidazo[1,2-a]pyridin-2-yl]-1-(cyclopropylmethyl)pyrrolo [2,3-b]pyridin-6-yl]-~{N}-~{tert}-butylbutanamide], for which the pIC50 – broadly, the negative decadic logarithm of the IC50, by convention in mol/L – was 6.91.

As to `CCc1ccc2cc(-c3nc4cc(C(=O)N5[C@H]6CC[C@@H]5[C@H](N)C6)cc(OC)n4c3C)n(CC3CCCC3)c2n1` [Example 509, [(1~{R},2~{R},4~{S})-2-amino-7-azabicyclo [2.2.1]heptan-7-yl]-[2-[1-(cyclopentylmethyl)-6-ethylpyrrolo[2,3-b]pyridin-2-yl]-5-methoxy-3-methylimidazo[1,2-a]pyridin-7-yl]methanone], the pIC50 was 6.18. For `COc1cc(C(=O)N2C[C@@H]3CC[C@H]2[C@@H](N)C3)cc2nc(-c3cc4ccc(N(C(F)F)S(C)(=O)=O)nc4n3CC3CC3)c(C)n12` [Example 375, ~{N}-[2-[7-[(1~{S},4~{R}, 6~{S})-6-amino-2-azabicyclo[2.2.2]octane-2-carbonyl]-5-methoxy-3-methylimidazo[1,2-a]pyridin-2-yl]-1-(cyclopropylmethyl)pyrrolo [2,3-b]pyridin-6-yl]-~{N}-(difluoromethyl) methanesulfonamide], the pIC50 was 5.56. The result for `COc1cc(C(=O)N2[C@H]3CC[C@@H]2[C@H](N)C3)cc2nc(-c3cc4ccc([C@@H](C)NC(=O)Nc5c(C)cccc5C)nc4n3CC3CC3)c(C)n12` [Example 238, 1-[(1~{R})-1-[2-[7-[(1~{R},2~{R},4~{S})-2-amino-7-azabicyclo[2.2.1]heptane-7-carbonyl]-5-methoxy-3-methylimidazo [1,2-a]pyridin-2-yl]-1-(cyclopropylmethyl)pyrrolo [2,3-b]pyridin-6-yl]ethyl]-3-(2,6-dimethylphenyl)urea] reads 6.84. For `COc1cc(C(=O)N2[C@H]3CC[C@@H]2[C@H](N)C3)cc2nc(-c3cc4ccc(N(C(F)F)S(C)(=O)=O)nc4n3CC3CC3)c(C)n12` [Example 389, N-(2-(7-((1R,2R,4S)-2-amino-7-azabicyclo[2.2.1]heptane-7-carbonyl)-5-methoxy-3-methylimidazo[1,2-a]pyridin-2-yl)-1-(cyclopropylmethyl)-1H-pyrrolo[2,3-b]pyridin-6-yl)-N-(difluoromethyl)methanesulfonamide] the value was 7.07. Regarding `COc1cc(C(=O)N2CCC3(CNC3)C2)cc2nc(-c3cc4ccc(N(C(F)F)S(C)(=O)=O)nc4n3CC3CC3)c(C)n12` [Example 380, ~{N}-[1-(cyclopropylmethyl)-2-[7-(2,6-diazaspiro[3.4]octane-6-carbonyl)-5-methoxy-3-methylimidazo[1,2-a]pyridin-2-yl]pyrrolo[2,3-b]pyridin-6-yl]-~{N}-(difluoromethyl) methanesulfonamide], the pIC50 was 4.61. `COc1cc(C(=O)N2[C@H]3CC[C@@H]2[C@H](N)C3)cc2nc(-c3cc4ccc([C@@H](C)NC(=O)C5(C)CCOCC5)nc4n3CC3CC3)c(C)n12` [Example 135, ~{N}-[(1~{R})-1-[2-[7-[(1~{R},2~{R},4~{S})-2-amino-7-azabicyclo[2.2.1]heptane-7-carbonyl]-5-methoxy-3-methylimidazo [1,2-a]pyridin-2-yl]-1-(cyclopropylmethyl)pyrrolo [2,3-b]pyridin-6-yl]ethyl]-4-methyloxane-4-carboxamide]: the pIC50 is 6.97. For `COc1cc(C(=O)N[C@H]2CNCC[C@@H]2C)cc2nc(-c3cc4ccc(N(C(F)F)S(C)(=O)=O)nc4n3CC3CC3)c(C)n12` [Example 288, 2-[1-(cyclopropylmethyl)-6-[difluoromethyl (methylsulfonyl)amino]pyrrolo[2,3-b]pyridin-2-yl]-5-methoxy-3-methyl-~{N}-[(3~{R},4~{S})-4-methylpiperidin-3-yl]imidazo[1,2-a]pyridine-7-carboxamide] the value was 5.08; for `COc1cc(C(=O)N[C@H]2CNC[C@@H](C)C2)cc2nc(-c3cc4ccc(N(C(F)F)S(C)(=O)=O)nc4n3CC3CC3)c(C)n12` [Example 317, 2-[1-(cyclopropylmethyl)-6-[difluoromethyl (methylsulfonyl)amino]pyrrolo[2,3-b]pyridin-2-yl]-5-methoxy-3-methyl-~{N}-[(3~{R},5~{S})-5-methylpiperidin-3-yl] imidazo[1,2-a]pyridine-7-carboxamide], 6.09.

Consider `COc1cc(C(=O)N2[C@H]3CC[C@@H]2[C@H](N)C3)cc2nc(-c3cc4ccc(C5CCN(C(C)=O)CC5)nc4n3CC3CC3)c(C)n12` [Example 527, 1-[4-[2-[7-[(1~{R},2~{R}, 4~{S})-2-amino-7-azabicyclo[2.2.1]heptane-7-carbonyl]-5-methoxy-3-methylimidazo[1,2-a]pyridin-2-yl]-1-(cyclopropylmethyl)pyrrolo [2,3-b]pyridin-6-yl]piperidin-1-yl] ethenone], for which the pIC50 is 6.66. For the compound `COc1cc(C(=O)N2[C@H]3CC[C@@H]2[C@H](N)C3)cc2nc(-c3cc4ccc([C@@H](C)NC(=O)NCc5ccncc5)nc4n3CC3CC3)c(C)n12` [Example 223, 1-[(1~{R})-1-[2-[7-[(1~{R},2~{R},4~{S})-2-amino-7-azabicyclo[2.2.1]heptane-7-carbonyl]-5-methoxy-3-methylimidazo [1,2-a]pyridin-2-yl]-1-(cyclopropylmethyl)pyrrolo [2,3-b]pyridin-6-yl]ethyl]-3-(pyridin-4-ylmethyl)urea], the pIC50 was 7.11. For `COc1cc(C(=O)N2[C@H]3CC[C@@H]2[C@H](N)C3)cc2nc(-c3cc4ccc(C(C)C(N)=O)nc4n3CC3CC3)c(C)n12` (stereo partly drawn) [Example 545] the value was 7.09; for `COc1cc(C(=O)N2CCC[C@@H](N)C2)cc2nc(-c3cc4ccc([C@@H](C)NC(=O)[C@H]5[C@@H]6CC(F)(F)C[C@@H]65)nc4n3CC3CC3)c(C)n12` [Example 9, (1~{R},5~{S})-~{N}-[(1~{R})-1-[2-[7-[(3~{R})-3-aminopiperidine-1-carbonyl]-5-methoxy-3-methylimidazo[1,2-a]pyridin-2-yl]-1-(cyclopropylmethyl)pyrrolo[2,3-b]pyridin-6-yl]ethyl]-3,3-difluorobicyclo[3.1.0] hexane-6-carboxamide], 7.55; for `COc1cc(C(=O)N2[C@H]3CC[C@@H]2[C@H](N)C3)cc2nc(-c3cc4ccc([C@@H](C)NC(=O)C5(O)CCCC5)nc4n3CC3CC3)c(C)n12` [Example 88, ~{N}-[(1~{R})-1-[2-[7-[(1~{R},2~{R},4~{S})-2-amino-7-azabicyclo[2.2.1]heptane-7-carbonyl]-5-methoxy-3-methylimidazo [1,2-a]pyridin-2-yl]-1-(cyclopropylmethyl)pyrrolo [2,3-b]pyridin-6-yl]ethyl]-1-hydroxycyclopentane-1-carboxamide], 7.35. The result for `COc1cc(C(=O)N2[C@H]3CC[C@@H]2[C@H](N)C3)cc2nc(-c3cc4ccc(N5CCCC(c6ccccc6)S5(=O)=O)nc4n3CC3CC3)c(C)n12` (stereo partly drawn) [Example 469, [(1~{R},2~{R},4~{S})-2-amino-7-azabicyclo [2.2.1]heptan-7-yl]-[2-[1-(cyclopropylmethyl)-6-(1,1-dioxo-6-phenylthiazinan-2-yl)pyrrolo[2,3-b]pyridin-2-yl]-5-methoxy-3-methylimidazo[1,2-a]pyridin-7-yl]methanone] reads 6.11.
